This note sets out measurements from patent US20230416203A1, “POTENT AND SELECTIVE INHIBITORS OF THE CALCIUM-ACTIVATED POTASSIUM CHANNEL, KCA3.1, FOR USE AS PLATFORM THERAPEUTICS” (priority 2020, published 2023).

Some results are limits rather than exact numbers.

Data set [1] has as its target KCa3.1 channel (Homo sapiens, UniProt O15554). The experiment in a line: KCa3.1 patch-clamp (QPatch HTX automated and manual). The data set is classed as cell-based. The procedure: The effect of the compounds on KCa3.1 channel was evaluated by patch-clamp using a QPatch HTX automated electrophysiology platform (Sophion, Denmark) and by manual patch-clamp (HEKA, Germany). For QPatch experiments, the giga-seal and whole-cell requirements for the automated electrophysiology were the following: minimum seal resistance=0.1 GQ; holding potential=−80 mV; holding pressure=−20 mbar; and positioning pressure=−70 mbar. For KCa3.1 experiment, the external solution was Na^+-Ringer's and contained (in mM): 160 NaCl; 10 HEPES; 4.5 KCl; 1 MgCl2; and 2 CaCl2 (pH=7.4, 310 mOsm). […] Following establishment of the whole-cell configuration, cells were held at −80 mV and KCa3.1 currents elicited by a voltage protocol that held at −80 mV for 20 ms, stepped to −120 mV for 20 ms, ramped from −120 to +40 mV over 200 ms, and then stepped back to −120 mV for 20 ms. This pulse protocol was applied every 10 s. Current slopes (in amperes per second) were measured using the Sophion QPatch software and exported to Microsoft Excel and GraphPad Prism 7 for analysis. […] Curve-fitting and IC50 determination were performed using GraphPad Prism software.
For orientation: Patch clamp records ionic current or voltage across a cell membrane.

For data set [2], the target named is T1, KCa1.1 (Homo sapiens, UniProt Q12791).
T1 construct: expressed in transfected cells; host or cells: HEK
Put plainly: Potassium channels patch-clamp (QPatch), KCa1.1. The data set is classed as cell-based. The procedure: (§1) The effects of Group 4 compounds on related potassium channels were evaluated by patch-clamp using a QPatch HTX automated electrophysiology platform (Sophion, Denmark). The giga-seal and whole-cell requirements for the automated electrophysiology were the following: minimum seal resistance=0.1 GO, holding potential=−80 mV, holding pressure=−20 mbar; and positioning pressure=−70 mbar.

Data set [3] deals with T2, KCa2.2 (Rattus norvegicus, UniProt P70604).
T2 construct: expressed in transfected cells; host or cells: HEK
Put plainly: Potassium channels patch-clamp (QPatch), KCa2.2. The data set is classed as cell-based. The procedure:
as §1

Data set [4] has as its target T3, KV1.1 (Mus musculus, UniProt P16388).
T3 construct: expressed in transfected cells; host or cells: L929
Put plainly: Potassium channels patch-clamp (QPatch), KV1.1. Type of data set: cell-based. How it is done: as §1

The target of data set [5] is T4, KV1.2 (Rattus norvegicus, UniProt P63142).
T4 construct: expressed in transfected cells; host or cells: B82
Put plainly: Potassium channels patch-clamp (QPatch), KV1.2. Type of data set: cell-based. How it is done: as §1

Data set [6] deals with T5, KV1.3 (Mus musculus, UniProt P16390).
T5 construct: expressed in transfected cells; host or cells: L929
T5 sequence (P16390 whole entry): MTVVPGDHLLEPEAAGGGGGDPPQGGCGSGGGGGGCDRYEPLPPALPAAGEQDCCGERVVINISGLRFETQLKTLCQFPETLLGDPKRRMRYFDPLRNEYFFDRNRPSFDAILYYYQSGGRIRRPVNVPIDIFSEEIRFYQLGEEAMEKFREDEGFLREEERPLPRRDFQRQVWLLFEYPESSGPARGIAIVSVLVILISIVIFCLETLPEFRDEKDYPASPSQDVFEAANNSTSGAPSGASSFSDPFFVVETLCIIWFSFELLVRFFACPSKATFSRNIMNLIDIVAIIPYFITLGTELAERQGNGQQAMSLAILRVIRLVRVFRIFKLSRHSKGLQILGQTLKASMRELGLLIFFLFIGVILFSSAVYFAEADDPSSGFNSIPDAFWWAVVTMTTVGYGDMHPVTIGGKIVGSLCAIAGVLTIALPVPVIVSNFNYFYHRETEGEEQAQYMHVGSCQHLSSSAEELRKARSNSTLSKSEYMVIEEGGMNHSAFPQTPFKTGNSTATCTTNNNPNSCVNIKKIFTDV
Put plainly: Potassium channels patch-clamp (QPatch), KV1.3. The data set is classed as cell-based. The procedure:
as §1

Data set [7] addresses T6, KV1.4 (Homo sapiens, UniProt P22459).
T6 construct: expressed in transfected cells; host or cells: LTK
Put plainly: Potassium channels patch-clamp (QPatch), KV1.4. Type of data set: cell-based. The procedure:
as §1

Data set [8] addresses T7, KV1.5 (Homo sapiens, UniProt P22460).
T7 construct: expressed in transfected cells; host or cells: MEL
The experiment in a line: Potassium channels patch-clamp (QPatch), KV1.5. The data set is classed as cell-based. How it is done: as §1

For data set [9], the target named is T8, KV1.7 (Homo sapiens, UniProt Q96RP8).
T8 construct: expressed in transfected cells; host or cells: CHL
Put plainly: Potassium channels patch-clamp (QPatch), KV1.7. Type of data set: cell-based. How it is done:
as §1

Data set [10] deals with T9, CYP-3A4 (Homo sapiens, UniProt P08684).
T9 construct: from tissue
T9 sequence (P08684 whole entry): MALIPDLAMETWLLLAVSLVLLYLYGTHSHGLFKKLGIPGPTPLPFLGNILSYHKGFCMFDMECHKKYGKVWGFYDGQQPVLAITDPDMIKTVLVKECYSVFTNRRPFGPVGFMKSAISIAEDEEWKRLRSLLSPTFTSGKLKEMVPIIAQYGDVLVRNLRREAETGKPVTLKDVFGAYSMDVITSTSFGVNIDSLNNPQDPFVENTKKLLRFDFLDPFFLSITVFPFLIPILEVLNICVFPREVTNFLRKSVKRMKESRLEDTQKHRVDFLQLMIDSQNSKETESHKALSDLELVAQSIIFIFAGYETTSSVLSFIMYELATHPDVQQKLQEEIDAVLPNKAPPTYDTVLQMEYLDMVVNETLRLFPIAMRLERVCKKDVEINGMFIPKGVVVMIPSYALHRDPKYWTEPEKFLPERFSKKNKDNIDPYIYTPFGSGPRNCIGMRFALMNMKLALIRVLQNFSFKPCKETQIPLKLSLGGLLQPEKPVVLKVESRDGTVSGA
The experiment in a line: Cytochrome P450 enzymes inhibition assay, CYP-3A4. The settings on record: for CYP IC50/KCa3.1 IC50: CYP-3A4. Type of data set: in vitro ADME. The source says: (§2) The metabolite formation for each substrate under the above conditions was estimated using the following formula: Percent inhibition=[1−(test area ratio/control area ratio)]×100.

The target in data set [11] is CYP-2C9 (Homo sapiens, UniProt P11712). The experiment in a line: Cytochrome P450 enzymes inhibition assay, CYP-2C9. The data set is classed as in vitro ADME. The settings on record: for CYP IC50/KCa3.1 IC50: CYP-2C9.
CYP-2C9, sequence (P11712 whole entry): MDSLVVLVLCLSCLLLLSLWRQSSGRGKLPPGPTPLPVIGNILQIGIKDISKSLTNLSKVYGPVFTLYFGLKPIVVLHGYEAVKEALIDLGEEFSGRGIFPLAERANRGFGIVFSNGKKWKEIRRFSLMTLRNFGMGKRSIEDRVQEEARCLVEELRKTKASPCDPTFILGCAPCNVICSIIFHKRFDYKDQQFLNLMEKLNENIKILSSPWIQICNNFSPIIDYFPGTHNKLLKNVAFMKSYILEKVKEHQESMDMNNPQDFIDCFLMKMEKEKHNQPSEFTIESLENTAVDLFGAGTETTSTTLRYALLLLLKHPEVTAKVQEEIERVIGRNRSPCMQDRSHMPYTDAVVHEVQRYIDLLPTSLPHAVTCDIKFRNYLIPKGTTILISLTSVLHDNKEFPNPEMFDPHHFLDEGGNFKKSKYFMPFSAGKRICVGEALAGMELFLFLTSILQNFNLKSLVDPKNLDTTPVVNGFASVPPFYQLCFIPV
From the text: as §2

Data set [12] addresses T10, CYP-IA2 (Homo sapiens, UniProt P05177).
T10 construct: from tissue
T10 sequence (P05177 1-516): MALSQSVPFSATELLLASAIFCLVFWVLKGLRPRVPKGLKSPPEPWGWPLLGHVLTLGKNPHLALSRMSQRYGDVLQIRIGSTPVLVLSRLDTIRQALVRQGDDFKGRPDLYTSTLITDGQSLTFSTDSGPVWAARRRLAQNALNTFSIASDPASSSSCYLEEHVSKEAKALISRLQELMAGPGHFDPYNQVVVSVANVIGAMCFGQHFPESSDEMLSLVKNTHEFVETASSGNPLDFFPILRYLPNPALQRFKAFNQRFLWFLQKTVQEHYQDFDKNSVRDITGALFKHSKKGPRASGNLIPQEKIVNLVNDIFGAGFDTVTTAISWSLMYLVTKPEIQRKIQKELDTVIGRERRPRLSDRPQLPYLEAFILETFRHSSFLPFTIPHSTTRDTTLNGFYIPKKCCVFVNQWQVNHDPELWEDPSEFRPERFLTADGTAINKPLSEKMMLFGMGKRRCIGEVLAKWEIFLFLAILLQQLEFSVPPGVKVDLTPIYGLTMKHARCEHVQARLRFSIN
Put plainly: Cytochrome P450 enzymes inhibition assay, CYP-IA2. The data set is classed as in vitro ADME. The settings on record: for CYP IC50/KCa3.1 IC50: CYP-IA2.
From the text: as §2

The target of data set [13] is CYP-2C19 (Homo sapiens, UniProt P33261). Put plainly: Cytochrome P450 enzymes inhibition assay, CYP-2C19. The data set is classed as in vitro ADME. To be noted: for CYP IC50/KCa3.1 IC50: CYP-2C19.
CYP-2C19, sequence (P33261 whole entry): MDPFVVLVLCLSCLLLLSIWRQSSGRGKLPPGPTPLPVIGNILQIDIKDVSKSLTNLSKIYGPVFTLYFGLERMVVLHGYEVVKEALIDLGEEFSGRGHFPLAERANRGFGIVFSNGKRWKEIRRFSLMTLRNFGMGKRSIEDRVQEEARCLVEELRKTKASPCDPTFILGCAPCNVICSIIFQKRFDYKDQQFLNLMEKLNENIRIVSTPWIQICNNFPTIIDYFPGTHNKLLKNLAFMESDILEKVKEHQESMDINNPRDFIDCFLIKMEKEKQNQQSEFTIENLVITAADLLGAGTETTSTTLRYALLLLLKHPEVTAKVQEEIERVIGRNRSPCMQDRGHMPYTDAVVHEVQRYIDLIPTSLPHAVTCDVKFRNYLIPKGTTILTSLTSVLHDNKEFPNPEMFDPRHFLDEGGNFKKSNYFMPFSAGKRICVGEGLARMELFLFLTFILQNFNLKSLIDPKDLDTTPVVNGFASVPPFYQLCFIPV
From the text: as §2

Data set [14] deals with CaV1.2 channel over KCa3.1 (Homo sapiens, UniProt Q13936). Put plainly: in vitro. To be noted: pH 7.4.
CaV1.2 channel over KCa3.1, sequence (Q13936 whole entry): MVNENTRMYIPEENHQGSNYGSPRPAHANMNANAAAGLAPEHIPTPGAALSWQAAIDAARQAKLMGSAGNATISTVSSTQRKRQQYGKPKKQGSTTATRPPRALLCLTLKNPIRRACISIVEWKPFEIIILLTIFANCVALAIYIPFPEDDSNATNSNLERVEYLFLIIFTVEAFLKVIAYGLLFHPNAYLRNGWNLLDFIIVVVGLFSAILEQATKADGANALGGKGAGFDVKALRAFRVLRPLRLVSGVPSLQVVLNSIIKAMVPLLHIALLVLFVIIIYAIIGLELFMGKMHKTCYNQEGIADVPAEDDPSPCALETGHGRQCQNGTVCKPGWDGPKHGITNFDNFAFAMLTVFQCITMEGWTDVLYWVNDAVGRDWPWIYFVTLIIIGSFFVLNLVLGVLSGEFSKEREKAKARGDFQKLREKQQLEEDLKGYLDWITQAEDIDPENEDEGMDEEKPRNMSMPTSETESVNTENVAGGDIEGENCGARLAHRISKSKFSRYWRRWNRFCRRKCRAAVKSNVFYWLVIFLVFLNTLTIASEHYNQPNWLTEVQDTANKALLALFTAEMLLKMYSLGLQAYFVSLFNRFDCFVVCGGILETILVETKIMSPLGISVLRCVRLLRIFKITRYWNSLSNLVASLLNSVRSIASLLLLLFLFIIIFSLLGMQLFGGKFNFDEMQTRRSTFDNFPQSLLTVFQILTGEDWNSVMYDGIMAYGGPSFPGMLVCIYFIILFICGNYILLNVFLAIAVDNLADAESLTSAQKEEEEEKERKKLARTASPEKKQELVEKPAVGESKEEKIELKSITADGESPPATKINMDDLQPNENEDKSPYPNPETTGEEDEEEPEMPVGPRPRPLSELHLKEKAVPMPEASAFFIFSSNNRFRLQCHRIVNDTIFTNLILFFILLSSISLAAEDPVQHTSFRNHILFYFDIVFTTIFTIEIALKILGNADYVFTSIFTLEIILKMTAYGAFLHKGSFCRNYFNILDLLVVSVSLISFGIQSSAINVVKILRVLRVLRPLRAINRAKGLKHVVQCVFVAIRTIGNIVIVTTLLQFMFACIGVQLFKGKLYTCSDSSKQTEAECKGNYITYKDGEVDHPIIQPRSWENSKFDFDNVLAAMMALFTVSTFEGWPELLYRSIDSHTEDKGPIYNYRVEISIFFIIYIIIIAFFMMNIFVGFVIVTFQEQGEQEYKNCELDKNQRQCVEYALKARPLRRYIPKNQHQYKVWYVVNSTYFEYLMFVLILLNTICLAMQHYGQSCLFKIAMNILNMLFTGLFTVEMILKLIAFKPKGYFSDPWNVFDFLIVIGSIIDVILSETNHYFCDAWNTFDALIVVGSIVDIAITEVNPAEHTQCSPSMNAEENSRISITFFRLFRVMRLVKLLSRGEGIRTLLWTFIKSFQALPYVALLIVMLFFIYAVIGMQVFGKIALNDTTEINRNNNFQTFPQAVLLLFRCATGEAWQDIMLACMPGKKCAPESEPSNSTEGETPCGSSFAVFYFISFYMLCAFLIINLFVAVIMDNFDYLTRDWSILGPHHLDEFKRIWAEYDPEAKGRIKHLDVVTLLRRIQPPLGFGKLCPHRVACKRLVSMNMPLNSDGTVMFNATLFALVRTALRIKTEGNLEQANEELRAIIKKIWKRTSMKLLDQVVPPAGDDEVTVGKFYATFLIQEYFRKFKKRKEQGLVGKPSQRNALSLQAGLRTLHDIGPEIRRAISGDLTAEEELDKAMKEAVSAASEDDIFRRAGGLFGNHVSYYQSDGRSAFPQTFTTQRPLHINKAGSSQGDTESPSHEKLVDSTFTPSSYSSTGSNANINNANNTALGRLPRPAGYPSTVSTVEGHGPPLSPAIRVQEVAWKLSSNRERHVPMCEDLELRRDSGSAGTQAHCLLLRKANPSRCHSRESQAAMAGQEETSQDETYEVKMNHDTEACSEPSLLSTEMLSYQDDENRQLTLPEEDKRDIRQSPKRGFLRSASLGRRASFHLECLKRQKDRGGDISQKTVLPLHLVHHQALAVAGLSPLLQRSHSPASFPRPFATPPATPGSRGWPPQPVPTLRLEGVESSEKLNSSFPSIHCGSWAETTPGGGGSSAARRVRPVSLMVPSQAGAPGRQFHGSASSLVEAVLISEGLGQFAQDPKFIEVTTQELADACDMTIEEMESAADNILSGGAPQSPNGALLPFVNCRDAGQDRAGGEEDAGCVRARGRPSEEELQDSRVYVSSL
The nature of data set [15]: in vitro. The settings on record: human, microsomes, pH 7.4.
Data set [16] can be described thus: Microsomal stability studies. The settings on record: for Microsomal Stability (human) % remaining @ 30 mins: human microsomes, 1 μM; for drug/control (% remaining @ 30 mins): ratio to Verapamil control.

T6 sequence (P22459 whole entry): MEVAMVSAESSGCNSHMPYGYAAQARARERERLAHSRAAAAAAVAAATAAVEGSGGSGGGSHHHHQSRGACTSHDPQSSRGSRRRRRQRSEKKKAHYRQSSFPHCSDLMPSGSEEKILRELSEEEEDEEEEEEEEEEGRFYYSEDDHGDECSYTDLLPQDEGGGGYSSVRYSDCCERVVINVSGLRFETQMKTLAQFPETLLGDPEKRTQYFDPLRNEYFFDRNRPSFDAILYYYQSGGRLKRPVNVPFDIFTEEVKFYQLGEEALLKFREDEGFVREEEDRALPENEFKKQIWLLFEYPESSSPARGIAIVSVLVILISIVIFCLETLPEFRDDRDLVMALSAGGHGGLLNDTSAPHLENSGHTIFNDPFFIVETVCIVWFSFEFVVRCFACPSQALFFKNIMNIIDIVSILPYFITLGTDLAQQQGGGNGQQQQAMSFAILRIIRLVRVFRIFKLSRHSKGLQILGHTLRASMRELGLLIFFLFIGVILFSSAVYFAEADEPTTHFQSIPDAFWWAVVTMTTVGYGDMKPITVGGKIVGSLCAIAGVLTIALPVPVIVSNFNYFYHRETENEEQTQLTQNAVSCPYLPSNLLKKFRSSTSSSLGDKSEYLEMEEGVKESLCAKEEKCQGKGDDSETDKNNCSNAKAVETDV

By IC50 is commonly meant the concentration at which inhibition is half-maximal. The low end stands for higher potency, the high end for lower potency. A word on the half-life: it is how long it takes for the measured level to halve. Consider `COC(=O)C1=C(C)NC(C)=C(C(=O)OC)C1c1ccc(F)c(C(F)(F)F)c1` [Compound 101], for which the IC50 is 16 ± 0.2 nM in data set [1] (IC50 (nM), block of KCa3.1, patch clamp (Table 2)); 16.2 ± 0.2 nM in data set [1] (KCa3.1, Table 5); greater than 10 µM in data set [2]; greater than 10 µM in [3]; greater than 10 µM in data set [4]; greater than 10 µM in [5]. The IC50 in [6] is greater than 10 µM; in data set [7] it was greater than 10 µM; in [8] it was greater than 10 µM; in [9] it was greater than 10 µM; in data set [10] (microsomes) it was 1.3 µM; in data set [11] (microsomes) it was 2.6 µM. Also, the IC50 in data set [12] (microsomes) is 9.1 µM; in data set [13] (microsomes), greater than 20 µM. In addition, the “CYP IC50/KCa3.1 IC50” value in data set [10] amounted to 79.75; in data set [11], 162.5; in [12], 558; in data set [13], 1226. In addition, the selectivity ratio in [14] was 200. The molecule further had a half-life at 1 μM in [15] of 22 min. Moreover, the “Microsomal Stability (human) % remaining @ 30 mins” value in data set [16] is recorded as 53%. In data set [16], the “drug/control (% remaining @ 30 mins)” value amounted to 1.6.

With `COC(=O)C1=CNC=C(C(=O)OC)C1c1ccc(F)c(C(F)(F)F)c1` [Compound 103, Dimethyl 4-(4-fluoro-3-(trifluoromethyl)phenyl)-1,4-dihydropyridine-3,5-dicarboxylate], the IC50 in data set [1] (KCa3.1, Table 5) is 6.1 ± 0.9 nM; in data set [1] (KCa3.1 IC50 (nM), Table 3), 6.1 nM; in data set [2], greater than 10 µM; in [3], greater than 10 µM; in data set [4], greater than 10 µM; in data set [5] it was greater than 10 µM. In addition, the IC50 in data set [6], in [7], in [8] and in data set [9] was greater than 10 µM each time. Further, the “CYP IC50/KCa3.1 IC50” value in data set [10] came out at 3279; in data set [11], 836; in data set [12] it was 3279; in data set [13], 3279. Also, in [14], the selectivity ratio is 2210. In [15], this molecule came in with a half-life at 1 μM of 16 min. For the same molecule, the “Microsomal Stability (human) % remaining @ 30 mins” value in data set [16] was determined as 25%. The “drug/control (% remaining @ 30 mins)” value in data set [16] is on record as 3.7.
